Experimental data as given in patent US9765105B2, “Macrolide compound” (Pulike Biological Engineering, Inc., priority 2013, dated 2017).

What was measured:
Experiment in all cases: in vitro susceptibility, MIC by mini broth dilution
Assay type in all cases: cell-based
[1] = system: Staphylococcus aureus CVCC26003; details: strain CVCC26003
Summary of the method: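 S. aureus CVCC26003 was revived and subcultured twice, 20 h each at 35° C, on solid medium, then diluted 1:200 in CAMHB liquid medium. Compounds received an 11-step two-fold DMSO dilution in parallel duplicate rows. MIC was read by mini broth dilution per NCCLS guidance.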

[2] = system: Actinobacillus pleuropneumoniae CVCC262; details: strain CVCC262
Summary of the method: (§1)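 NCCLS-based mini broth dilution; inoculum from twice-streaked 35° C/20 h cultures, 1:200 in broth; compound two-fold series in DMSO, 11 steps, duplicates.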

Haemophilus parasuis = system: Haemophilus parasuis
Summary of the method: as §1

[3] = system: Pasteurella multocida CVCC399; details: strain CVCC399
Summary of the method: as §1

[4] = system: Streptococcus equines CVCC556; details: strain CVCC556
Summary of the method: as §1

Row | SMILES | MIC values, Staphylococcus aureus CVCC26003 [1] | MIC values, Actinobacillus pleuropneumoniae CVCC262 [2] [ug/mi] | MIC values, Haemophilus parasuis (Haemophilus parasuis) | MIC values, Pasteurella multocida CVCC399 [3] [ug/mi] | MIC values, Streptococcus equines CVCC556 [4]
1 | CC[C@H]1OC(=O)[C@H](C)[C@@H](O[C@H]2C[C@@](C)(OC)[C@](O)(CNCc3ccc(F)cc3)[C@H](C)O2)[C@H](C)[C@@H](O[C@@H]2O[C@H](C)C[C@H](N(C)C)[C@H]2O)[C@](C)(O)C[C@@H](C)NC[C@H](C)[C@@H](O)[C@]1(C)O [syzx-8, (2R,3S,4R,5S,8R,10R,11R,12S,13S,14R)-13-[(2,6-dideoxy-3-C-methyl-3-O-methyl-4-C-[(4-fluorobenzylamino)methyl]-α-L-ribopyranosyl)oxy]-2-ethyl-3,4,10-trihydroxy-3,5,8,10,12,14-hexamethyl-11-[[3,4,6-trideoxy-3-(dimethylamino)-β-D-xylo-hexopyranosy]oxy]-1-oxa-7-azacyclopentadecan-15-one] | ≦0.25 ug/mi | 0.5 | ≦0.25 ug/mi | 0.25 | ≦0.25 ug/mi
2 | CCCN1C[C@H](C)[C@@H](O)[C@](C)(O)[C@@H](CC)OC(=O)[C@H](C)[C@@H](O[C@H]2C[C@@](C)(OC)[C@](O)(CNCc3ccc(OC)cc3)[C@H](C)O2)[C@H](C)[C@@H](O[C@@H]2O[C@H](C)C[C@H](N(C)C)[C@H]2O)[C@](C)(O)C[C@H]1C [syzx-118] | 0.25 ug/mi | 0.25 | 0.25 ug/mi | 0.25 | 0.25 ug/mi
3 | CCCN1C[C@H](C)[C@@H](O)[C@](C)(O)[C@@H](CC)OC(=O)[C@H](C)[C@@H](O[C@H]2C[C@@](C)(OC)[C@](O)(CNc3cccc(Cl)c3)[C@H](C)O2)[C@H](C)[C@@H](O[C@@H]2O[C@H](C)C[C@H](N(C)C)[C@H]2O)[C@](C)(O)C[C@H]1C [syzx-113] | 0.25 ug/mi | 0.25 | 0.25 ug/mi | 1 | 0.25 ug/mi
4 | CCCN1C[C@H](C)[C@@H](O)[C@](C)(O)[C@@H](CC)OC(=O)[C@H](C)[C@@H](O[C@H]2C[C@@](C)(OC)[C@](O)(CNC3CCCC3)[C@H](C)O2)[C@H](C)[C@@H](O[C@@H]2O[C@H](C)C[C@H](N(C)C)[C@H]2O)[C@](C)(O)C[C@H]1C [syzx-130] | 0.25 ug/mi | 0.5 | 8 ug/mi | 0.5 | 0.25 ug/mi
5 | CC[C@H]1OC(=O)[C@H](C)[C@@H](O[C@H]2C[C@@](C)(OC)[C@](O)(CNCCNC)[C@H](C)O2)[C@H](C)[C@@H](O[C@@H]2O[C@H](C)C[C@H](N(C)C)[C@H]2O)[C@](C)(O)C[C@@H](C)NC[C@H](C)[C@@H](O)[C@]1(C)O [syzx-29] | 1 ug/mi | 16 | 0.5 ug/mi | 2 | 0.5 ug/mi
6 | CCC1OC(=O)C(C)C(OC2CC(C)(OC)C(O)(CNCc3ccc(C)o3)C(C)O2)C(C)C(OC2OC(C)CC(N(C)C)C2O)C(C)(O)CC(C)NCC(C)C(O)C1(C)O [syzx-78, (2R,3S,4R,5S,8R,10R,11R,12S,13S,14R)-13-[(2,6-dideoxy-3-C-methyl-3-O-methyl-4-C-[(5-methylfurfurylamino)-methyl]-α-L-ribopyranosyl)oxy]-2-ethyl-3,4,10-trihydroxy-3,5,8,10,12,14-hexamethyl-11-[[3,4,6-trideoxy-3-(dimethylamino)-β-D-xylo-hexopyranosy]oxy]-1-oxa-7-azacyclopentadecan-15-one] | 0.25 ug/mi | 2 | 0.25 ug/mi | 0.5 | 0.25 ug/mi
7 | CCCN1C[C@H](C)[C@@H](O)[C@](C)(O)[C@@H](CC)OC(=O)[C@H](C)[C@@H](O[C@H]2C[C@@](C)(OC)[C@](O)(CNc3cccc(Br)c3)[C@H](C)O2)[C@H](C)[C@@H](O[C@@H]2O[C@H](C)C[C@H](N(C)C)[C@H]2O)[C@](C)(O)C[C@H]1C [syzx-223] | 0.25 ug/mi | 0.25 | 0.25 ug/mi | 0.5 | 0.25 ug/mi
8 | C#CCNC[C@]1(O)[C@H](C)O[C@@H](O[C@H]2[C@H](C)[C@@H](O[C@@H]3O[C@H](C)C[C@H](N(C)C)[C@H]3O)[C@](C)(O)C[C@@H](C)NC[C@H](C)[C@@H](O)[C@](C)(O)[C@@H](CC)OC(=O)[C@@H]2C)C[C@@]1(C)OC [syzx-40, (2R,3S,4R,5S,8R,10R,11R,12S,13S,14R)-13-[(2,6-dideoxy-3-C-methyl-3-O-methyl-4-C-[[propargyl-amino]-methyl]-α-L-ribopyranosyl)oxy]-2-ethyl-3,4,10-trihydroxy-3,5,8,10,12,14-hexamethyl-11-[[3,4,6-trideoxy-3-(dimethylamino)-β-D-xylo-hexopyranosy]oxy]-1-oxa-7-azacyclopentadecan-15-one] | 0.5 ug/mi | 16 | 0.5 ug/mi | 1 | 0.5 ug/mi
9 | CC[C@H]1OC(=O)[C@H](C)[C@@H](O[C@H]2C[C@@](C)(OC)[C@](O)(C=NNc3ccccc3)[C@H](C)O2)[C@H](C)[C@@H](O[C@@H]2O[C@H](C)C[C@H](N(C)C)[C@H]2O)[C@](C)(O)C[C@@H](C)NC[C@H](C)[C@@H](O)[C@]1(C)O [syzx-73, (2R,3S,4R,5S,8R,10R,11R,12S,13S,14R)-13-[(2,6-dideoxy-3-C-methyl-3-O-methyl-4-C-[(phenylhydrazono)-methyl]-α-L-ribopyranosyl)oxy]-2-ethyl-3,4,10-trihydroxy-3,5,8,10,12,14-hexamethyl-11-[[3,4,6-trideoxy-3-(dimethylamino)-β-D-xylo-hexopyranosy]oxy]-1-oxa-7-azacyclopentadecan-15-one] | 1 ug/mi | 1 | 1 ug/mi | 2 | 0.5 ug/mi
